# Experimental data as given in patent US20080038386A1, “Use of a liquid cooling sensate to provide a pungent, warming or tingling sensate composition” (priority 2006, published 2008).
# Experiments:
# [1] = 30 ppm in sucrose solution; cited from earlier work
# [2] = Sensory panel: pungency enhancement of a hot chile pepper sauce; format: in vivo
# Source text: For this type evaluation, a panel consisting of both professional flavorists and other individuals with sensory testing experience was employed. In each tasting session two samples were presented to the panelists in a randomized order to avoid presentation order effect. Panelists were asked to rate the samples as same or different. If different, panelists were asked to rate the “pungent, hotness (warming) or tingling” intensity and to describe the flavor profile as compared to a control sample without the eutectic cooling mixture.
# A commercial hot chile pepper sauce derived from Capsicum frutescens var. tabasco (Tabasco® brand) (whose primary pungent principles are the amides capsaicin and dihydrocapsaicin) was diluted to 5% strength in water (the control). […] The control sample was the 5% strength hot chile pepper sauce. […] The degree of hotness (warmth) and pungency profile enhancement was judged to be 25-35%.
Structure (SMILES),sensory description [1],"accompanying sensory effect noted by panelists ([2]; 28 ppm in 5% strength hot chile pepper sauce, especially in the back of the throat)",sensory balance accompanying the pungency enhancement ([2]; capsaicin containing products (summary statement))
"C/C=C/C=C\CC/C=C/C(=O)NCC(C)C [spilanthol, 2E,6Z,8E-decatrienoic acid-N-isobutylamide]",tingling & mouth watering,–,–
"CCNC(=O)C1CC(C)CCC1C(C)C (stereo not drawn) [WS-3, N-Ethyl-p-menthane-3-carboxamide]",–,unpleasant irritating-scratchy effect,unbalanced scratchy-irritating and distorted sensory impression
